Consider two substances from patent US9974849B2, “Human Papilloma virus therapeutic vaccine” (The Board of Trustees of the University of Arkansas, priority 2013, dated 2018).

Data set [1] can be described thus: Solubilizing HPV E6 peptides in buffer. The format is physicochemical. As for the experimental part:
We attempted to make a pharmaceutical formulation with four HPV E6 peptides. The 4 peptides were peptides consisting of residues 1-45, 46-80, 81-115, and 116-158 of SEQ ID NO:1. Each of the peptides was amidated at its carboxyl terminus and acetylated at its amino terminus. The peptides were each chemically synthesized.
For the pharmaceutical formulation, this was mixed with trehalose as a stabilizing agent and glycine as tonicity modifier. The final concentrations of the formulation were 10 mM glutamate, 1.0% w/v trehalose, 2.0% w/v glycine, and 0.714 mg/ml each of the four peptides.

Data set [2] concerns CD3 T cells co-cultured with autologous LCs. Briefly: T cell proliferation induced by treated LCs (alamarBlue). The class given is cell-based, human. The following applies: 7 days co-culture. Background: The colour change of resazurin is a common sign of viable cells or microbes.

In the case of “Ac-SEYRHYCYSLYGTTLEQQYNK PLCDLLIRCINCQK-NH2 [E6 81-115]”, the Solubility result in data set [1] (added to 10 mM glutamate, pH 4.0 solution already containing solubilized E6 1-45, E6 46-80, E6 116-158, 5 mg/ml for each of the four peptides) is “could be solubilized and will stay soluble”; in data set [1] (alone, in any suitable buffer for manufacturing), “insoluble”.
With tetanus toxoid, the “Subjects with measurable proliferation (increased fluorescence of ≥5000)” value in data set [2] was “subjects 2 and 5”. Further, in data set [2] (over media), the T-cell proliferation entry was “no significant increase over media”.
